# Data: patent publication US10239851B2 (priority 2014, dated 2019)
# Read-outs that look alike come from different tables or passages of the source.
# Columns and labels:
# [1] = system: human prostate cancer PC-3; settings: for Tumor volume (mm^3) (D0): D0 (baseline at grouping);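 for all read-outs here: PC-3 tumors were established by implanting the cells under the skin of nude mice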
# Description: Test of the inhibitory activity of the water soluble cabazitaxel derivatives on subcutaneously xenografted tumor of human prostate cancer PC-3 in nude mice: evaluating and comparing the inhibitory activity of the water soluble cabazitaxel derivatives and cabazitaxel on subcutaneously xenografted tumor of human prostate cancer PC-3 in nude mice.
# Human prostate cancer PC-3 cells were subcutaneously inoculated into nude mice. After the tumor volume reached 100-150 mm^3, the animals were randomly divided into several groups, and administered with the water soluble cabazitaxel derivatives of the present invention and cabazitaxel, respectively once on the same day (D0). The tumor volume was measured 2-3 times per week, the animals were weighed and the data were recorded until day 20 (D20) after grouping.
# The tumor volume (V) was calculated according to the equation: V=½×a×b^2, wherein a and b represent the length and the width, respectively.
# T/C (%)=(T−T0)/(C−C0)×100, wherein T and C represent the tumor volume at the end of the experiment; and T0 and C0 represent the tumor volume at the beginning of the experiment.
# [2] = In vitro dissociation of the water soluble taxane derivatives in blood plasma of rabbit; assay type: in vitro ADME, New Zealand white rabbits; settings: 37° C.
# Description: The obtained water soluble taxane derivatives were formulated as 0.2 mg/ml aqueous solutions. […] After 5 min, 20 min and 60 min of incubation, 0.2 ml of solutions were respectively taken from each of the samples, and added to acetonitrile (0.4 ml) cooled to −20° C. for precipitation of protein.
# [3] = In vitro dissociation of the water soluble taxane derivatives in blood plasma of rat; assay type: in vitro ADME, SD rats; settings: 37° C.
# Description: The obtained water soluble taxane derivatives were formulated as 0.2 mg/ml aqueous solutions. […] After 2 min, 5 min and 10 min of incubation, 0.2 ml of solutions were respectively taken from each of the samples, and added to acetonitrile (0.4 ml) cooled to −20° C. for precipitation of protein.
# [4] = rat plasma, 37° C.
# Description: (§1) 0.1 ml samples were taken from each of the solutions, added respectively to 1 ml of blood plasma of rabbit (taken from New Zealand white rabbits, treated according to conventional methods, anticoagulated with heparin) or 1 ml of blood plasma of rat (taken from live SD rats, treated according to conventional methods, anticoagulated with heparin), homogeneously mixed, and placed in a thermostatic water bath at 37° C. for incubation with time being recorded. Samples were taken at different time points after the experiment began, and 2 ml of acetonitrile was immediately added. The samples were shaken and centrifuged for 5 min (15,000 rpm), and the supernatant was then taken for HPLC analysis.
# [5] = rabbit plasma, 37° C.; for Sampling time/dissociation percent (%) 15 s / Sampling time/dissociation percent (%) 30 s: formula F derivatives
# Description: as §1
# [6] = PC-3 xenograft, nude mice, 13 mg/kg, D0 IV, single dose
# [7] = PC-3 xenograft, nude mice, 13 mg/kg, D0 IV, single dose, D6
# [8] = formula F derivatives, sampling time 5 s
# [9] = PC-3 xenograft, nude mice, 7 mg/kg, D0 IV, single dose
compound,measurement,setting,value
"CCN(C)CC[C@@H](F)C(=O)O[C@@H](C(=O)O[C@H]1C[C@@]2(O)[C@@H](OC(=O)c3ccccc3)[C@@H]3[C@]4(OC(C)=O)CO[C@@H]4C[C@H](OC)[C@@]3(C)C(=O)[C@H](OC)C(=C1C)C2(C)C)[C@@H](NC(=O)OC(C)(C)C)c1ccccc1.O=C(O)/C=C\C(=O)O [Compound 30, 2′-O-[4-(N-methyl-N-ethyl)amino-2(R)-fluorobutyryl]cabazitaxel maleate]",T/C (%) D20,[1]; [6],−56%
"CCN(CC)CC[C@@H](F)C(=O)O[C@@H](C(=O)O[C@H]1C[C@@]2(O)[C@@H](OC(=O)c3ccccc3)[C@@H]3[C@]4(OC(C)=O)CO[C@@H]4C[C@H](OC)[C@@]3(C)C(=O)[C@H](OC)C(=C1C)C2(C)C)[C@@H](NC(=O)OC(C)(C)C)c1ccccc1.CS(=O)(=O)O [Compound 31, 2′-O-[4-(N,N-diethyl)amino-2(R)-fluorobutyryl]cabazitaxel methanesulfonate]",T/C (%) D20,[1]; [6],−50%
"CO[C@H]1C(=O)[C@]2(C)[C@@H](OC)C[C@H]3OC[C@@]3(OC(C)=O)[C@H]2[C@H](OC(=O)c2ccccc2)[C@]2(O)C[C@H](OC(=O)[C@H](OC(=O)[C@H](F)CCN(C)C(C)C)[C@@H](NC(=O)OC(C)(C)C)c3ccccc3)C(C)=C1C2(C)C.Cl [Compound 32, 2′-O-[4-(N-methyl-N-isopropyl)amino-2(R)-fluorobutyryl]cabazitaxel hydrochloride]",T/C (%) D20,[1]; [6],−45%
"CO[C@H]1C(=O)[C@]2(C)[C@@H](OC)C[C@H]3OC[C@@]3(OC(C)=O)[C@H]2[C@H](OC(=O)c2ccccc2)[C@]2(O)C[C@H](OC(=O)[C@H](OC(=O)[C@@H](CCN(C)C)C(F)(F)F)[C@@H](NC(=O)OC(C)(C)C)c3ccccc3)C(C)=C1C2(C)C.CS(=O)(=O)O [Compound 33, 2′-O-[4-(N,N-dimethyl)amino-2(R)-2-trifluoromethylbutyryl]cabazitaxel methanesulfonate]",T/C (%) D20,[1]; [6],−46%
"CO[C@H]1C(=O)[C@]2(C)[C@@H](OC)C[C@H]3OC[C@@]3(OC(C)=O)[C@H]2[C@H](OC(=O)c2ccccc2)[C@]2(O)C[C@H](OC(=O)[C@H](OC(=O)[C@@H](CCN(C)C)C(F)F)[C@@H](NC(=O)OC(C)(C)C)c3ccccc3)C(C)=C1C2(C)C.Cc1ccc(S(=O)(=O)O)cc1 [Compound 34, 2′-O-[4-(N,N-dimethyl)amino-2(R)-2-difluoromethylbutyryl] cabazitaxel p-toluene sulfonate]",Tumor volume (mm^3) (D0),[1]; [6],116.7 ± 3.9 mm^3
same,Weight change (%) D6,[1]; [7],−16.1%
same,T/C (%) D20,[1]; [6],−37%
same,Tumor inhibitory percent (%) D20,[1]; [6],85%
same,Tumor volume (mm^3) (D20),[1]; [6],48.4 ± 14.7 mm^3
"CO[C@H]1C(=O)[C@]2(C)[C@@H](OC)C[C@H]3OC[C@@]3(OC(C)=O)[C@H]2[C@H](OC(=O)c2ccccc2)[C@]2(O)C[C@H](OC(=O)[C@H](OC(=O)[C@H](F)CCCN(C)C)[C@@H](NC(=O)OC(C)(C)C)c3ccccc3)C(C)=C1C2(C)C.Cl [Compound 35, 2′-O-[5-(N,N-dimethyl)amino-2(R)-fluorovaleryl]cabazitaxel hydrochloride]",Tumor volume (mm^3) (D0),[1]; [6],112.9 ± 4.4 mm^3
same,Weight change (%) D6,[1]; [7],−16.6%
same,T/C (%) D20,[1]; [6],−28%
same,Tumor inhibitory percent (%) D20,[1]; [6],64%
same,Tumor volume (mm^3) (D20),[1]; [6],55.3 ± 13.8 mm^3
"CO[C@H]1C(=O)[C@]2(C)[C@@H](OC)C[C@H]3OC[C@@]3(OC(C)=O)[C@H]2[C@H](OC(=O)c2ccccc2)[C@]2(O)C[C@H](OC(=O)[C@H](OC(=O)[C@H](F)CCCCN(C)C)[C@@H](NC(=O)OC(C)(C)C)c3ccccc3)C(C)=C1C2(C)C.O=S(=O)(O)O [Compound 36, 2′-O-[6-(N,N-dimethyl)amino-2(R)-fluorohexanoyl]cabazitaxel sulfate]",Tumor volume (mm^3) (D0),[1]; [6],111.9 ± 3.7 mm^3
same,Weight change (%) D6,[1]; [7],−16.8%
same,T/C (%) D20,[1]; [6],−20%
same,Tumor inhibitory percent (%) D20,[1]; [6],46%
same,Tumor volume (mm^3) (D20),[1]; [6],66.8 ± 12.4 mm^3
"CO[C@H]1C(=O)[C@]2(C)[C@@H](OC)C[C@H]3OC[C@@]3(OC(C)=O)[C@H]2[C@H](OC(=O)c2ccccc2)[C@]2(O)C[C@H](OC(=O)[C@H](OC(=O)[C@H](F)CCN(C)C)[C@@H](NC(=O)OC(C)(C)C)c3ccccc3)C(C)=C1C2(C)C.CS(=O)(=O)O [Compound C7, 2′-O-[4-(N,N-dimethyl)amino-2(R)-fluorobutyryl]cabazitaxel methanesulfonate]",dissociation percent,[2]; 5 min,78.4%
same,dissociation percent,[2]; 20 min,94.8%
same,dissociation percent,[2]; 60 min,100%
same,dissociation percent,[3]; 2 min,49.7%
same,dissociation percent,[3]; 5 min,88.9%
same,dissociation percent,[3]; 10 min,100%
same,T/C (%) D20,[1]; [6],−67%
"CO[C@H]1C(=O)[C@]2(C)[C@@H](OC)C[C@H]3OC[C@@]3(OC(C)=O)[C@H]2[C@H](OC(=O)c2ccccc2)[C@]2(O)C[C@H](OC(=O)[C@H](OC(=O)[C@@H](F)CCN(C)C)[C@@H](NC(=O)OC(C)(C)C)c3ccccc3)C(C)=C1C2(C)C.CS(=O)(=O)O [Compound C8, 2′-O-[4-(N,N-dimethyl)amino-2(S)-fluorobutyryl]cabazitaxel methanesulfonate]",dissociation percent,[2]; 5 min,85.6%
same,dissociation percent,[2]; 20 min,94.5%
same,dissociation percent,[2]; 60 min,100%
same,dissociation percent,[3]; 2 min,49.4%
same,dissociation percent,[3]; 5 min,88.4%
same,dissociation percent,[3]; 10 min,100%
same,T/C (%) D20,[1]; [6],−66%
"CC(C)c1cccc(C(C)C)c1OC(=O)[C@@H](CCN(C)C)C(F)(F)F.Cl [Compound E3, propofol 4-(N,N-dimethyl)amino-2(R)-2-trifluoromethylbutyrate hydrochloride]",dissociation percent,[4]; 5 s,77.5%
same,dissociation percent,[5]; 15 s,51.7%
same,dissociation percent,[5]; 30 s,67.2%
"CC(C)c1cccc(C(C)C)c1OC(=O)[C@@H](F)CCCN(C)Cc1ccccc1.Cl [Compound E5, propofol 5-(N-methyl-N-benzyl)amino-2(S)-2-fluorovalerate hydrochloride]",dissociation percent,[4]; 5 s,72.3%
same,dissociation percent,[4]; 15 s,97.3%
same,dissociation percent,[5]; 15 s,48.4%
same,dissociation percent,[5]; 30 s,69.7%
"CC(C)c1cccc(C(C)C)c1OC(=O)[C@@H](F)CCN1CC1.Cl [Compound E7, propofol 4-N-(aziridin-1-yl)-2(S)-2-fluorobutyrate hydrochloride]",dissociation percent,[4]; 5 s,92.3%
same,dissociation percent,[5]; 15 s,89.4%
same,dissociation percent,[5]; 30 s,94.4%
"CC(C)c1cccc(C(C)C)c1OC(=O)[C@H](F)CCN1CCCC1.Cl [Compound E8, propofol 4-(pyrrolidin-1-yl)-2(R)-2-fluorobutyrate hydrochloride]",dissociation percent,[4]; 5 s,95.6%
same,dissociation percent,[5]; 15 s,91.1%
same,dissociation percent,[5]; 30 s,98.2%
"CC(C)c1cccc(C(C)C)c1OC(=O)C(F)CCC(=O)[O-].[K+] [Compound F2, propofol 4-carboxyl-2(S)-fluorovalerate potassium salt]",Sampling time/dissociation percent (%) 5 s,[4]; [8],92.3%
same,Sampling time/dissociation percent (%) 15 s,[5]; sampling time 15 s,73.4%
same,Sampling time/dissociation percent (%) 30 s,[5]; sampling time 30 s,94.8%
"CC(C)c1cccc(C(C)C)c1OC(=O)C(CCC(=O)[O-])C(F)(F)F.[Li+] [Compound F3, propofol 4-carboxyl-2(R)-2-trifluoromethyl valerate lithium salt]",Sampling time/dissociation percent (%) 5 s,[4]; [8],47.4%
same,Sampling time/dissociation percent (%) 15 s,[5]; sampling time 15 s,28.4%
same,Sampling time/dissociation percent (%) 30 s,[5]; sampling time 30 s,47.9%
"CC(C)c1cccc(C(C)C)c1OC(=O)C(F)CCCC(=O)[O-].CC(C)c1cccc(C(C)C)c1OC(=O)C(F)CCCC(=O)[O-].[Zn+2] [Compound F5, di[propofol 5-carboxyl-2(S)-fluorohexanoate] zinc salt]",Sampling time/dissociation percent (%) 5 s,[4]; [8],63.2%
same,Sampling time/dissociation percent (%) 15 s,[4]; formula F derivatives,80.3%
same,Sampling time/dissociation percent (%) 15 s,[5]; sampling time 15 s,34.9%
same,Sampling time/dissociation percent (%) 30 s,[5]; sampling time 30 s,58.8%
"CC(C)c1cccc(C(C)C)c1OC(=O)C(F)C(=O)[O-].[Na+] [Compound F8, propofol 2-carboxyl-2(S)-fluoropropionate sodium salt]",Sampling time/dissociation percent (%) 5 s,[4]; [8],55.5%
same,Sampling time/dissociation percent (%) 15 s,[4]; formula F derivatives,69.3%
same,Sampling time/dissociation percent (%) 30 s,"[4]; formula F derivatives, sampling time 30 s",83.3%
same,Sampling time/dissociation percent (%) 15 s,[5]; sampling time 15 s,41.2%
same,Sampling time/dissociation percent (%) 30 s,[5]; sampling time 30 s,70.4%
"CC(C)c1cccc(C(C)C)c1OC(=O)[C@@H](CCOP(=O)([O-])[O-])C(F)(F)F.[Li+].[Li+] [Compound G3, {1-[4-(2,6-diisopropylphenoxy)-4-oxo-3-(R)-3-trifluoromethyl-1-butyl]} phosphate monoester dilithium salt]",Sampling time/dissociation percent (%) 5 S,"[4]; formula G derivatives, sampling time 5 s",38.7%
same,Sampling time/dissociation percent (%) 15 S,"[5]; formula G derivatives, sampling time 15 s",21.7%
same,Sampling time/dissociation percent (%) 30 S,"[5]; formula G derivatives, sampling time 30 s",43.6%
"CO[C@H]1C(=O)[C@]2(C)[C@@H](OC)C[C@H]3OC[C@@]3(OC(C)=O)[C@H]2[C@H](OC(=O)c2ccccc2)[C@]2(O)C[C@H](OC(=O)[C@H](O)[C@@H](NC(=O)OC(C)(C)C)c3ccccc3)C(C)=C1C2(C)C [cabazitaxel, reference compound]",Tumor volume (mm^3) (D0),[1]; [9],111.7 ± 1.8 mm^3
same,T/C (%) D20,[1]; [9],−27%
same,Tumor inhibitory percent (%) D20,[1]; [9],127%
same,Tumor volume (mm^3) (D20),[1]; [9],79.9 ± 24.8 mm^3
same,Weight change (%) D6,"[1]; mouse, in vivo, iv, 7 mg/kg",−13.8%
